Results published in patent US20190358176A1, “METHODS OF SENSITIZING CANCER CELLS TO IMMUNE CELL KILLING” (University of Pittsburgh - of the Commonwealth System of …, priority 2017, published 2019).
Where two headings read alike, the source gives them in different places.

Key:
rat hepatocytes [1] = assay: Five-day hepatocyte toxicity (PI positive cells); assay type: cell-based
Experimental: (§1) Rat hepatocytes were isolated using standard two step collagenase digestion (15) and sub-cultivated at 14,000 hepatocytes/well in collagen-1 coated 384 well plates in Williams E Medium supplemented with 10% FBS, 2 mM L-glutamine and 50 U/ml Penicillin and streptomycin. After 4 hours, medium was decanted and replaced with Hepatocyte Maintenance Media (Williams E supplemented with 1.25 mg/ml bovine serum albumin, 6.25 μg/ml human insulin, 100 nM dexamethasone, 6.25 μg/ml human transferrin, 6.25 ng/ml selenous acid, 2 mM L-glutamine, 15 mM HEPES, 100 U/mL penicillin, and 100 U/mL streptomycin). After overnight culture, cells were treated with concentration gradients of test agents. One hour after compound addition, cells were labeled with 200 nM TMRE and 4 μg/ml Hoechst 33342 for 45 min, imaged live on an ArrayScan VTI using a 10× objective, and images were analyzed with the Compartmental Bioapplication. Mitochondria were identified as cytosolic spots by size and brightness. The final parameter was % HIGH RingSpotAvgIntenCh2 (i.e., percentage of cells with TMRE puncta in the cytoplasm based on a threshold set with vehicle treated cells).
A gelling solution of 1.25 mg/ml rat tail collagen type I in pH 7.2 90:10 (v/v) Williams E media/10×HBSS was overlaid onto the rat hepatocytes. The collagen gel was incubated for 1 hour at 37° C., 5% CO2. The collagen sandwich cultures were then challenged for 5 days to test compounds in Hepatocyte Maintenance Media, without refeeding. A 10× solution of 40 μg/ml Hoechst 33342 was added during the final 2 hours of incubation followed by a 10× solution of 20 μg/ml PI for 1 hour. Cells were imaged and the percentage of PI positive cells calculated as above.

[2] = system: DUSP6/MKP-3 and DUSP1/MKP-1; details: HeLa cells, prior study (12); cited from earlier work
MDA-MB-231 cells [3] = assay: HCA of apoptosis and ERK phosphorylation (multiparametric: nuclear condensation, caspase-3 cleavage, ERK phosphorylation); assay type: cell-based, human; details: for IC50: Homo sapiens, 24 hours
Experimental: MDA-MB-231 cells (10,000/well) were treated with identical concentration gradients of test agents on the right and left half of a 384 well microplate for later assessment of potential compound autofluorescence. After 24 hours, cells were fixed, permeabilized with 0.2% Triton X-100, blocked with 1% BSA/PBS, and immunostained with anti-phospho-ERK (E10, CST cat#9106L)/AlexaFluor488 and anti-cleaved caspase-3 (CST cat#9664L)/AlexaFluor594 primary/secondary antibody pairs. Plates were imaged on the ArrayScan II using a 10×0.5NA objective. Each well was background corrected by subtracting mean phospho-ERK and cleaved caspase-3 intensities from wells that had received secondary antibody only. Data in Table 1 are the averages of the indicated numbers of independent experiments, each performed in quadruplicate. IC50, standard error, and 95% confidence intervals were calculated by […] in GraphPad Prism.
Multiple data points were analyzed in GraphPad Prism by one-way ANOVA using Dunnett's multiple comparison test. EC50/IC50 values were obtained from at least three independent experiments by non-linear regression using a four parameter logistic equation. IC50, standard error, and 95% confidence intervals were calculated in GraphPad.

[4] = system: patient-derived pre-B acute lymphoblastic leukemia (pre-B-ALL) cells; details: literature (46); cited from earlier work
[5] = system: ERK, JNK/SAPK, p38, MEK1 and MKK4/SEK1 phosphorylation; assay: Western blot of MAPK cascade phosphorylation; assay type: cell-based, human; details: MDA-MB-231 cells, 20 μM
MDA-MB-231 cells [6] = assay: Detection and quantitation of ROS in cancer cells (CM-H2-DCFDA); assay type: cell-based, human; details: for EC50: read-out: EC50 of ROS generation
Experimental: Detection and quantitation of ROS in cancer cells was performed as described before (14). Briefly, MDA-MB-231 cells were labeled with Hoechst 33342, loaded with CM-H2-DCFDA (5 μM, 15 min), and treated with test agents for 10 min. After two washes, cells were analyzed for Hoechst and ROS/FITC fluorescence on the ArrayScan II. Cells were classified as positive for ROS if their average FITC intensity exceeded a threshold defined as the average FITC intensity plus one SD from DMSO-treated wells.

rat hepatocytes [7] = assay: Hepatocyte mitochondrial function (TMRE staining); assay type: cell-based
Experimental: as §1

MDA-MB-231 cells [8] = assay: HCA of cell motility and cytotoxicity (Oris Pro 384 cell migration plate); assay type: cell-based, human; details: 48 hours, at antimigratory concentrations
Experimental: HCA of cell motility and cytotoxicity was performed essentially as described (51). MDA-MB-231 cells (15,000/well) were plated in collagen-coated Oris™ Pro 384-well microplates (Platypus Technologies cat # PRO384CMACCS) containing a chemical exclusion zone that dissolves upon cell seeding. Two hours after plating, medium was removed, and cells treated with ten-point, two-fold concentration gradients of test agents. Forty-eight hours after treatment, cells were stained with 10 μg/ml Hoechst 33342 and 1 μg/ml PI in HBSS for 15 min at 37° C. Plates were washed once with PBS and scanned live on the ArrayScan II using a 5× objective. To capture cells that had entered into the exclusion zone, a single field was acquired in the center of the well and nuclei therein enumerated. To assess changes in cell loss, nuclear size, and necrotic cell death, a second scan was performed that captured one field at the edge of the well (51). Parameters exported and plotted were SelectedObjectCountPerValidField (cell density), MEAN ObjectAreaCh1 (nucleus size), and % RESPONDER MeanAvgIntenCh2 (percent PI positive cells based on based on a threshold set with vehicle treated cells).

NCI 60 cell line panel = details: NSC150117, last tested June 2016; cited from earlier work
cellular MAPK activity = details: literature value; cited from earlier work
MDA-MB-231 cells [9] = assay: Toxicity reversal (rescue from BCI-215 toxicity by MAPK inhibitors); assay type: cell-based, human; details: MAPK inhibitor pre-incubation, then BCI-215 25 μM, 24 hours
Experimental: Cells were pre-treated (30 min for SCH772984, SP600125, SB203580, and 3 hours for JNK-IN-8) with identical concentration gradients of MAPK inhibitors on the right and left halves of a 384 well microplate. After preincubation, half of the microplate was treated with vehicle (DMSO), the other with a pro-apoptotic concentration of BCI-215 (25 μM). To eliminate potential bias through plate/edge effects, an independent plate was prepared in parallel where vehicle and BCI-215 treatments were reversed. Twenty-four hours thereafter, plates were stained with Hoechst 33342, washed once, and imaged on the ArrayScan II using a 10× objective for analysis for cell numbers and nuclear morphology. Plates were subsequently immunostained with a cleaved caspase-3/Cy5-conjugated secondary antibody pair and analyzed for apoptosis on an ArrayScan VTI using a 20×0.75 NA objective. Four independent readouts were extracted and correlated: cell density (SelectedObjectCountPerValidField), nuclear condensation (MEAN_ObjectAvgIntenCh1), nucleus rounding (MEAN_ObjectShapeLWRCh1), and average cellular cleaved caspase-3 intensity (MEAN_AvgIntenCh2). For each parameter, data were normalized to vehicle (maximum rescue) and BCI-215 (no rescue) as % rescue=1−((data point−DMSO)/(DMSO-BCI-215))*100.

MDA-MB-231 cells [10] = assay: Immune cell killing (sensitization to PBMC-derived LAK); assay type: cell-based, human; details: pre-treated 24 hours: BCI-215 3 μM, cisplatin 2 μM, doxorubicin 400 nM
Experimental: Peripheral blood mononuclear cells were obtained from healthy volunteers with an established IRB approved protocol, separated from heparinized blood on Ficoll-hypaque (GE Healthcare, Chicago) gradients as previously reported (16). Cells were cultured in RPMI 1640 supplemented with 10% FCS, 1% glutamine, 1% penicillin/streptomycin, and stimulated with 6,000 IU of Interleukin 2 for 24 hours. After incubation, cells were washed with PBS and counted. In parallel, MBA-MB-231 cells were pre-treated in a 384 well plate with vehicle or BCI-215 (3 μM). After 24 hours in culture, medium was replaced and PBMC added in two-fold serial dilutions starting with a 50-fold excess of PBMCs in triplicate. After 24 hours of co-culture, cells were fixed with formaldehyde/Hoechst 33342, washed twice with PBS, and imaged on the ArrayScan II. Cancer cells were identified by their larger nuclei compared with PBMC, setting a size gate in the DAPI channel. In experiments with chemotherapeutics, cells carrying a biosensor consisting of a mitochondrial targeting sequence derived from cytochrome c oxidase VIII linked to GFP that is a surrogate for cytochrome c release from mitochondria (17) were pre-treated for 24 hours with cisplatin (2 μM) or doxorubicin (400 nM), exposed to LAK as above, and cancer cells identified and quantified by green fluorescence. Cell densities were normalized to those in the absence of PBMCs. Mean cell densities from multiple independent experiments were averaged and plotted in GraphPad Prism.

[11] = rat hepatocytes, 5-day exposure

## O=C1/C(=C/c2ccccc2)C(NC2CCCCC2)c2ccccc21 (centres unmarked) [BCI, (E)-2-benzylidene-3-(cyclohexylamino)-2,3-dihydro-1H-inden-1-one]
Rat hepatocytes [1]; [11]
  hepatocyte toxicity, cell death (PI positive cells): caused cell death
[2]
  effect on ectopic DUSP6/MKP-3 and DUSP1/MKP-1 expression: override the effects
MDA-MB-231 cells [3]; BCI and BCI-215 at 22 μM
  nuclear morphology: shrunken, condensed nuclei that resembled pyknosis
MDA-MB-231 cells [3]; induction of phospho-ERK, read-out: IC50 ERK phosphorylation
  IC50: 8.59 µM
MDA-MB-231 cells [3]; read-out: IC50 Caspase-3 cleavage
  IC50: 9.17 µM
MDA-MB-231 cells [3]; read-out: IC50 Nuclear condensation
  IC50: 12.8 µM
[4]
  cell death in pre-B-ALL cells: selectively induced cell death
[5]
  activation (phosphorylation) of ERK, JNK/SAPK and p38: activated all three kinases
MDA-MB-231 cells [6]; Homo sapiens
  EC50: 20 µM
Rat hepatocytes [7]
  mitochondrial membrane integrity / potential (TMRE): did not affect mitochondrial potential
MDA-MB-231 cells [8]
  necrosis (% PI positive cells): Necrosis was reduced
NCI 60 cell line panel
  GI50: 1.84 µM

## Cc1cc(NC(=O)c2cccc(NC(=O)/C=C/CN(C)C)c2)ccc1Nc1nccc(-c2cccnc2)n1 [JNK-IN-8]
Cellular MAPK activity
  published concentration reported to inhibit cellular MAPK activity: 0.5 µM
MDA-MB-231 cells [9]
  reversal of BCI-215-induced cell loss, nuclear morphology changes and apoptosis: no effect

## O=C1C(SCCO)=C(SCCO)C(=O)c2ccccc21 [NSC95397]
Rat hepatocytes [1]; [11]
  hepatocyte toxicity, cell death (PI positive cells): caused cell death
MDA-MB-231 cells [6]
  time to ROS generation: ≤ 30 min
  EC50: 3 to 5 µM
Rat hepatocytes [7]
  mitochondrial membrane integrity / potential (TMRE): loss of mitochondrial membrane integrity
MDA-MB-231 cells [8]
  necrosis (% PI positive cells): caused necrosis at antimigratory concentrations

## C[S+]([O-])c1ccc(-c2nc(-c3ccncc3)c(-c3ccc(F)cc3)[nH]2)cc1 (centres unmarked) [SB203580]
Cellular MAPK activity
  published concentration reported to inhibit cellular MAPK activity: 10 µM
MDA-MB-231 cells [9]
  reversal of BCI-215-induced cell loss, nuclear morphology changes and apoptosis: partially reversed

## O=C(Nc1ccc2[nH]nc(-c3ccncc3)c2c1)[C@@H]1CCN(CC(=O)N2CCN(c3ccc(-c4ncccn4)cc3)CC2)C1 [SCH772984]
Cellular MAPK activity
  published concentration reported to inhibit cellular MAPK activity: 0.03 µM
MDA-MB-231 cells [9]
  reversal of BCI-215-induced cell loss, nuclear morphology changes and apoptosis: no effect

## N.N.[Cl][Pt][Cl] [cisplatin]
MDA-MB-231 cells [10]
  sensitization to LAK activity: sensitized cells to LAK activity

## COc1cccc2c1C(=O)c1c(O)c3c(c(O)c1C2=O)C[C@@](O)(C(=O)CO)C[C@@H]3O[C@H]1C[C@H](N)[C@H](O)[C@H](C)O1 [doxorubicin]
MDA-MB-231 cells [10]
  sensitization to LAK activity: sensitized cells to LAK activity

## CC1=CC(=O)c2ccccc2C1=O [menadione]
Rat hepatocytes [1]
  hepatocyte toxicity, cell death (PI positive cells): caused cell death
Rat hepatocytes [7]
  mitochondrial membrane integrity / potential (TMRE): loss of mitochondrial membrane integrity

## C[n+]1cc2c3c(ccc2c2ccc4cc5c(cc4c21)OCO5)OCO3 [sanguinarine]
Rat hepatocytes [1]; [11]
  hepatocyte toxicity, cell death (PI positive cells): caused cell death
Rat hepatocytes [7]
  mitochondrial membrane integrity / potential (TMRE): loss of mitochondrial membrane integrity
